Test results reported in PubChem BioAssay (NCI).
“And” between values parts separate entries of the source, which are not always exact repeats. Equal entries are not always repeated.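 These data come from cells grown in 96-well plates and exposed to compound for 48 hours at five concentrations. Abbreviation: GI50, concentration required for 50% inhibition of growth. The concentration for full growth arrest is given as TGI.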

What was measured:
Test in all cases: NCI tumour cell line growth inhibition, 48 h
[1] = system: A549 NSCLC
[2] = system: CCRF-CEM leukemia
[3] = system: DMS 114 small cell lung
[4] = system: HOP-62 NSCLC
[5] = system: KM12 colon
[6] = system: NCI-H226 lung
[7] = system: SF-268 CNS
[8] = system: SK-MEL-28 melanoma
[9] = system: UO-31 renal
[10] = system: XF 498 CNS

SMILES: O=c1cc(-c2cccs2)[nH]c2cc3c(cc12)OCO3
- TGI [1]: > 100 µM
- TGI [2]: > 100 µM
- TGI [3]: > 24.5 µM
- TGI [4]: 39.4 µM
- TGI [5]: > 100 µM
- TGI [6]: > 39.4 µM
- TGI [7]: > 100 µM
- TGI [8]: > 100 µM
- TGI [9]: > 100 µM
- TGI [10]: 15.3 µM

SMILES: CCc1cccc(C)c1NS(=O)(=O)c1ccccc1
- TGI [1]: > 100 µM
- TGI [2]: > 100 µM
- TGI [3]: > 100 µM
- TGI [4]: > 100 µM
- TGI [5]: > 100 µM
- TGI [6]: > 100 µM
- TGI [8]: > 100 µM
- TGI [9]: > 100 µM
- TGI [10]: > 100 µM

SMILES: Cn1c(=O)c(N=Nc2c(=O)n(C)c(=O)n3c2[nH]c2ccccc23)c2[nH]c3ccccc3n2c1=O
- TGI [1]: > 100 µM
- TGI [2]: > 100 µM
- TGI [3]: > 100 µM
- TGI [4]: > 100 µM
- TGI [5]: > 100 µM
- TGI [6]: > 100 µM
- TGI [7]: > 100 µM
- TGI [8]: > 100 µM
- TGI [9]: > 100 µM
- TGI [10]: > 100 µM

SMILES: O=c1ncccn1[C@@H]1O[C@H](CO)[C@H](O)C1O (stereo partly drawn)
- TGI [1]: > 100 µM
- TGI [2]: > 100 µM
- TGI [3]: > 100 µM
- TGI [4]: > 100 µM
- TGI [5]: > 100 µM
- TGI [6]: > 100 µM
- TGI [7]: > 100 µM
- TGI [8]: > 100 µM
- TGI [9]: > 100 µM
- TGI [10]: > 100 µM

SMILES: CC1CC(C)CC(C)C(O)/C(C#N)=C/C=C/CC(C2CCCC2C(=O)O)OC(=O)CC(O)C(C)C1 (stereo not drawn)
- GI50 [1]: 68.1 nM
- TGI [1]: 0.496 µM and 0.919 µM
- GI50 [2]: 24.1 nM
- TGI [3]: < 0.016 µM
- GI50 [4]: 18.3 nM
- TGI [4]: 0.108 µM and 0.0648 µM
- GI50 [5]: 47.3 nM and < 15.8 nM
- TGI [5]: 0.216 µM and 0.227 µM
- GI50 [6]: 31 nM
- TGI [6]: 0.0951 µM and 0.029 µM
- GI50 [7]: 30.7 nM
- TGI [7]: 0.311 µM and 0.117 µM
- GI50 [8]: 26.2 nM
- TGI [8]: 0.0847 µM and 0.0392 µM
- GI50 [9]: 27 nM
- TGI [9]: 0.15 µM and 0.0217 µM
- TGI [10]: < 0.0264 µM

SMILES: COC(=O)C1=CO[C@@H](OC2CC(CO)C(O)C(O)C2O)[C@@H]2[C@@H](C)[C@@H](OC(=O)/C=C/c3ccccc3)[C@@H](O)[C@H]12 (stereo partly drawn) (tested in a mixture with another compound)
- TGI [1]: > 100 µM
- TGI [2]: > 100 µM
- TGI [3]: > 100 µM
- TGI [4]: > 100 µM
- TGI [5]: > 100 µM
- TGI [6]: > 100 µM
- TGI [7]: > 100 µM
- TGI [8]: > 100 µM
- TGI [9]: > 100 µM
- TGI [10]: > 100 µM

SMILES: Cn1c(=O)nc2n(-c3ccc(O)cc3)c3ccccc3nc-2c1=O
- TGI [1]: > 100 µM
- TGI [2]: > 100 µM
- TGI [3]: > 100 µM
- TGI [4]: > 100 µM
- TGI [5]: > 100 µM
- TGI [6]: > 100 µM
- TGI [7]: > 100 µM
- TGI [8]: > 100 µM
- TGI [9]: > 100 µM
- TGI [10]: > 100 µM

SMILES: CC1=C(C(=O)Nc2ccccc2C)C(c2ccc(Cl)cc2)C(C(=O)Nc2ccccc2C)=C(C)N1
- TGI [1]: > 100 µM
- TGI [2]: > 100 µM
- TGI [3]: > 100 µM
- TGI [4]: > 100 µM
- TGI [5]: > 100 µM
- TGI [6]: > 100 µM
- TGI [7]: > 100 µM
- TGI [8]: > 100 µM
- TGI [9]: > 100 µM
- TGI [10]: > 100 µM

SMILES: COc1cc(Cl)cc(=O)c(O)c1OC
- TGI [2]: > 100 µM
- TGI [3]: 67.6 µM
- TGI [4]: > 100 µM
- TGI [5]: > 100 µM
- TGI [6]: > 87.2 µM
- TGI [7]: > 100 µM
- TGI [8]: > 100 µM
- TGI [9]: > 100 µM
- TGI [10]: > 100 µM

SMILES: Cc1c(OC(C)C(=O)O)ccc2c(-c3ccccc3)cc(=O)oc12 (stereo not drawn)
- TGI [1]: > 100 µM
- TGI [2]: > 100 µM
- TGI [3]: > 100 µM
- TGI [4]: > 100 µM
- TGI [5]: > 100 µM
- TGI [6]: > 100 µM
- TGI [7]: > 100 µM
- TGI [8]: > 100 µM
- TGI [9]: > 100 µM
- TGI [10]: > 100 µM

SMILES: COC1=NCc2ccccc2-c2ccccc21
- TGI [1]: > 100 µM
- TGI [2]: > 100 µM
- TGI [3]: > 100 µM
- TGI [5]: > 100 µM
- TGI [6]: > 100 µM
- TGI [7]: > 100 µM
- TGI [8]: > 100 µM
- TGI [9]: > 100 µM
- TGI [10]: > 100 µM

SMILES: O=C1Nc2ccccc2C1(O)C/C(=N/O)c1ccc2ccccc2c1 (stereo not drawn)
- TGI [1]: > 100 µM
- TGI [2]: > 100 µM
- TGI [3]: > 100 µM
- TGI [4]: > 100 µM
- TGI [5]: > 100 µM
- TGI [6]: > 100 µM
- TGI [7]: > 100 µM
- TGI [8]: > 100 µM
- TGI [9]: > 100 µM
- TGI [10]: > 100 µM

SMILES: O=C(N/N=C/c1ccccc1O)N/N=C/c1ccccc1O
- TGI [1]: > 100 µM
- TGI [2]: > 100 µM
- TGI [3]: > 100 µM
- TGI [4]: > 100 µM
- TGI [6]: > 100 µM
- TGI [7]: > 100 µM
- TGI [8]: > 100 µM
- TGI [9]: > 100 µM
- TGI [10]: > 100 µM

SMILES: O=C1CC(CC(=O)C2CCCCC2=O)C(=O)N1 (stereo not drawn)
- TGI [1]: > 100 µM
- TGI [2]: > 100 µM
- TGI [3]: > 100 µM
- TGI [4]: > 100 µM
- TGI [5]: > 100 µM
- TGI [6]: > 100 µM
- TGI [7]: > 100 µM
- TGI [8]: > 100 µM
- TGI [9]: > 100 µM
- TGI [10]: > 100 µM
